These results are taken from paper PMC12470768, “Mentha rotundifolia, a Source of Amoebicidal Agents Against Naegleria fowleri” (International Journal of Molecular Sciences, 2025).

Series [1] in a line: In vitro cytotoxicity on murine macrophages (alamarBlue). The series is classed as cell-based. The conditions noted are these: mouse, J774A.1 murine macrophage cell line (ATCC TIB-67), mean ± SD. The protocol: (§1) The in vitro activity of the tested compounds against Naegleria fowleri trophozoites was evaluated using two clinical strains obtained from the American Type Culture Collection (ATCC® 30808™ and ATCC® 30215™). Trophozoites were cultured axenically at 37 °C in 2% (w/v) Bactocasitone medium (Thermo Fisher Scientific, Madrid, Spain), supplemented with 10% (v/v) fetal bovine serum (FBS), […] penicillin G sodium salt, and 0.5 mg/mL streptomycin sulfate (Sigma-Aldrich, Madrid, Spain). For cytotoxicity assessment, murine macrophages from the J774A.1 cell line (ATCC® TIB-67) were cultured in Dulbecco’s Modified Eagle’s Medium (DMEM) supplemented with 10% (v/v) FBS and 10 μg/mL gentamicin sulfate (Sigma-Aldrich, Madrid, Spain). The macrophages were maintained at 37 °C in a 5% CO2 atmosphere.
The cytotoxicity of the compounds was assessed against the murine macrophage cell line J774A.1 (ATCC® TIB-67™). Cells were maintained at 37 °C in a 5% CO2 atmosphere in DMEM medium. In the assay, different concentrations of the compounds were added to the cells in a 96-well microtiter plate, and after 24 h of incubation, 10 µL of alamarBlue® reagent was added. The fluorescence intensity was measured using the EnSpire® Multimode Plate Reader (PerkinElmer, Madrid, Spain). The cytotoxic concentration required to reduce cell viability by 50% (CC50) was determined through nonlinear regression analysis using GraphPad Prism 9 software. The results were compared with those obtained against trophozoites to calculate the selectivity index (S.I.) for N. fowleri.
On the technique in general: Alamar Blue is a resazurin reagent that responds to reducing activity.

Series [2] relates to N. fowleri ATCC® 30215™ trophozoites. As to the kind of experiment: In vitro amoebicidal activity against N. fowleri trophozoites (alamarBlue), strain ATCC 30215. The series is classed as cell-based, Naegleria fowleri. The settings on record: trophozoite stage; for IC50: Naegleria fowleri, ATCC30215, 48 h, mean ± SD; for N. fowleri ATCC 30215 SI (CC50/IC50): selectivity index vs murine macrophages J774. The procedure: as §1
(§2) The trophocidal activity of the compounds was evaluated using the alamarBlue® colorimetric assay. N. fowleri trophozoites were seeded in duplicate in a 96-well microtiter plate at a concentration of 2 × 10^5 cells/mL and incubated for adhesion in Bactocasitone medium (2% v/w) (Thermo Fisher Scientific, Madrid, Spain), supplemented with 10% (v/v) fetal bovine serum (FBS), 0.3% penicillin G sodium salt, and 0.5 mg/mL streptomycin sulfate (Sigma-Aldrich, Madrid, Spain). Different concentrations of the evaluated compounds, prepared in fresh Bactocasitone medium, were added to the wells (50 µL per well). The negative control consisted of trophozoites incubated with the medium alone. After adding 10 µL of alamarBlue® reagent, the plates were incubated at 37 °C for 48 h with slight agitation. The data were analyzed using nonlinear regression with GraphPad Prism 9 software to determine the IC50 and IC90 values, which were then used for further studies on PCD [10].

For series [3], the system named is N. fowleri ATCC® 30808™ trophozoites. The series can be described thus: In vitro amoebicidal activity against N. fowleri trophozoites (alamarBlue), strain ATCC 30808. The series is classed as cell-based, Naegleria fowleri. The conditions noted are these: for IC50: Naegleria fowleri; for IC50 / N. fowleri ATCC 30808 IC50: mean ± SD; for N. fowleri ATCC 30808 IC50: trophozoites; for N. fowleri ATCC 30808 SI (CC50/IC50): selectivity index vs murine macrophages J774. The protocol:
as §1, §2

Series [4] relates to N. fowleri ATCC® 30215™ cyst stage. As to the kind of experiment: In vitro cysticidal activity against N. fowleri cysts (alamarBlue), strain ATCC 30215. The series is classed as cell-based. The settings on record: Naegleria fowleri, ATCC30215, mean ± SD. The procedure: (§3) Following the assays against trophozoites, the compounds were further evaluated for their activity against the cyst stage of N. fowleri (ATCC® 30808™ and ATCC® 30215™). To induce cyst formation, the trophozoites were centrifuged, resuspended in MYAS medium, and incubated under slight agitation at room temperature for 10 days. After this, mature cysts were harvested, pretreated with 0.5% SDS, and seeded in a 96-well microtiter plate at 2 × 10^5 cells/mL. The drugs were tested in serial dilutions, and after 24 h of incubation at 37 °C, the medium was replaced with fresh Bactocasitone medium. The colorimetric alamarBlue® assay was used to assess cyst viability, with 10 µL of reagent added to each well. The plates were incubated for an additional 72 h at 37 °C, and fluorescence was measured using the EnSpire® Multimode Plate Reader (PerkinElmer, Madrid, Spain). The results were compared to a negative control (untreated cysts) and a positive control (amphotericin B and miltefosine). The IC50 values were determined through nonlinear regression analysis.

Series [5] relates to N. fowleri ATCC® 30808™ cyst stage. As to the kind of experiment: In vitro cysticidal activity against N. fowleri cysts (alamarBlue), strain ATCC 30808. The series is classed as cell-based, Naegleria fowleri. The settings on record: Naegleria fowleri, ATCC30808, mean ± SD. The protocol: as §3
Series [6] concerns N. fowleri trophozoites. The series can be described thus: Chromatin condensation (Hoechst 33342 / propidium iodide staining). The series is classed as cell-based, Naegleria fowleri. The conditions noted are these: IC90, 24 h; compound 7 on ATCC 30808, compound 10 on ATCC 30215, amphotericin B on both. The protocol:
(§4) To evaluate the induction of PCD, N. fowleri strains ATCC® 30808™ and ATCC® 30215™ were treated with the IC90 concentration of the compounds 7 and 10 for 24 h at 37 °C. After incubation, specific fluorescent markers were used to assess various detectable metabolic events, following the manufacturers’ instructions for each assay. Amphotericin B was used as a positive control, and untreated amoebae served as a negative control. Fluorescence imaging was performed using EVOS M5000 Cell Imaging System (Life Technologies, Madrid, Spain) and confocal microscope Leica DMI 4000 B equipped with Leica Application Suite X software version 3.5.5.19976 and Leica HC PL APO 63x/1.40 OIL CS2 objective (Leica Microsystems, Wetzlar, Germany). The fluorescence obtained was expressed as mean ± standard deviation from at least three independent experiments.
To evaluate the chromatin condensation, cells were stained with Hoechst 33,342 (1 µM) and propidium iodide (PI) (1 µM) for 20 min in the dark. Hoechst 33,342 binds to condensed chromatin in apoptotic cells and emits blue fluorescence, while PI enters cells with compromised membranes, indicative of late apoptosis or necrosis, and binds to DNA, emitting red fluorescence. […] Untreated cells were included as negative controls to establish baseline fluorescence levels.

Series [7] has as its system N. fowleri trophozoites. The series can be described thus: Plasma membrane permeability (SYTOX Green). The settings on record: IC90, 24 h; compound 7 on ATCC 30808, compound 10 on ATCC 30215, amphotericin B on both. The series is classed as cell-based, Naegleria fowleri. The procedure: as §4
After treatment, SYTOX™ Green nucleic acid stain (Life Technologies, Madrid, Spain) was added to each well at a final concentration of 1 μg/mL and incubated for 15 min in the dark. […] In contrast, viable cells with intact membranes exclude the dye and remain non-fluorescent. Untreated trophozoites were used as negative controls.

Where [8] appears, read: ATCC30808, 48 h, trophozoite stage, 48 h.
Setting [9] is: ATCC30808, trophozoites, extracts, fractions, subfractions, isolated compound and reference drugs.

One may read the CC50 as the concentration giving 50% cytotoxicity. The term IC50 denotes the concentration that gives 50% inhibition. Higher therefore signals weaker potency in that assay. Compound `C[C@H]1[C@H](C)CC[C@]2(C(=O)O)CC[C@]3(C)C(=CC[C@@H]4[C@@]5(C)CC[C@H](O)C(C)(C)[C@@H]5CC[C@]43C)[C@H]12` [Compound 1, ursolic acid] had a CC50 at 24 h in series [1] of 35.9 ± 9.28 µM. Also, the IC50 in series [2] was determined as 82.5 ± 8.43 µM; in series [3] (setting [8]) it was 142 ± 8.17 µM; in series [3] (setting [9]) it was 65.9 µg/mL. The “N. fowleri ATCC 30215 SI (CC50/IC50)” value in series [2] is listed as 0.43. In addition, in series [3] (extracts, fractions, subfractions, isolated compound and reference drugs, listed as UA (1)), the “N. fowleri ATCC 30808 IC50” value was determined as 65.91 ± 3.73 µg/mL.

`COC(=O)[C@]12CC[C@@H](C)[C@H](C)C1C1=CCC3[C@@]4(C)CC[C@H](OC(=O)CCCC(=O)O)C(C)(C)C4CC[C@@]3(C)[C@]1(C)CC2` (stereo partly shown) [Compound 8, 3-O-(Hemiglutaryl)-methyl ursolate] returned a CC50 at 24 h in series [1] of 85 ± 5 µM. Besides, in series [2], half-maximal inhibition (IC50) was put at 38.7 ± 2.15 µM and the “N. fowleri ATCC 30215 SI (CC50/IC50)” value is 2.20. The IC50 in series [3] (setting [8]) came to 66.6 ± 9.25 µM. Moreover, the “N. fowleri ATCC 30808 SI (CC50/IC50)” value in series [3] (trophozoite stage) was 1.24.

As to `CCCCCCCCCCCCCCCCOP(=O)([O-])OCC[N+](C)(C)C` [Miltefosine, reference compound], in series [1], the CC50 at 24 h is 128 ± 8.85 µM. Moreover, the half-inhibitory concentration (IC50) in series [2] came out at 81.6 ± 7.23 µM; in series [3] (setting [8]) it was 38.7 ± 4.23 µM; in series [3] (setting [9]), 12.7 ± 1.49 µg/mL; in series [4] it was 37.8 ± 5.6 µM; in series [5] it was 21.5 ± 2.62 µM. The “N. fowleri ATCC 30215 SI (CC50/IC50)” value in series [2] is 1.57. Also, in series [3] (trophozoite stage), the “N. fowleri ATCC 30808 SI (CC50/IC50)” value came out at 3.30.

Regarding `C[C@@H]1[C@H](O)[C@@H](C)/C=C/C=C/C=C/C=C/C=C/C=C/C=C/[C@H](O[C@@H]2O[C@H](C)[C@@H](O)[C@H](N)[C@@H]2O)C[C@@H]2O[C@](O)(C[C@@H](O)C[C@@H](O)[C@H](O)CC[C@@H](O)C[C@@H](O)CC(=O)O[C@H]1C)C[C@H](O)[C@H]2C(=O)O` [Amphotericin B, reference compound], the CC50 at 24 h in series [1] is > 200 µM. For the same compound, the IC50 was found to be 0.16 ± 0.01 µM in series [2]; 0.12 ± 0.03 µM in series [3] (setting [8]); 0.18 µg/mL in series [3] (setting [9]); 0.62 ± 0.04 µM in series [4]; 0.53 ± 0.03 µM in series [5]. Moreover, the “N. fowleri ATCC 30215 SI (CC50/IC50)” value in series [2] was >1250. The “N. fowleri ATCC 30808 SI (CC50/IC50)” value in series [3] (trophozoite stage) is >1650.89. Moreover, the “N. fowleri ATCC 30808 IC50” value in series [3] (extracts, fractions, subfractions, isolated compound and reference drugs, listed as A) came to 0.162 ± 0.002 µg/mL. Further, the “chromatin condensation (Hoechst 33342 fluorescence)” value in series [6] was “clear chromatin condensation”. In series [7], the “plasma membrane integrity (SYTOX Green fluorescence)” value is “bright green fluorescence”.

Consider `COC(=O)[C@]12CC[C@@H](C)[C@H](C)[C@H]1C1=CC[C@@H]3[C@@]4(C)CC[C@H](O)C(C)(C)[C@@H]4CC[C@@]3(C)[C@]1(C)CC2` [Compound 2, methyl ursolate], for which the midpoint of cytotoxicity in series [1], the CC50 at 24 h, lay at 49.6 ± 5.65 µM. Moreover, the values for the IC50 in series [2] and in series [3] (setting [8]) were 84.5 ± 6.31 µM and 88.7 ± 3.02 µM, respectively. Besides, in series [3] (trophozoite stage), the “N. fowleri ATCC 30808 SI (CC50/IC50)” value is reported as 1.12.
